Results reported in PubChem BioAssay (NCI).
Values joined by “and” are separate entries in the source; they are usually repeats but may differ in a detail not shown here. Identical values can stand only once.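 Following 48 hours of exposure in 96-well plates, responses at five concentrations were used to interpolate endpoints linearly. At the GI50, growth is halved. At the TGI there is no net growth.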

Assays:
Test in all cases: NCI tumour cell line growth inhibition, 48 h
SNB-19 CNS = tested on: SNB-19 CNS
SK-OV-3 ovarian = tested on: SK-OV-3 ovarian
SK-MEL-28 melanoma = tested on: SK-MEL-28 melanoma
COLO 205 colon = tested on: COLO 205 colon
SF-539 CNS = tested on: SF-539 CNS
LOX IMVI melanoma = tested on: LOX IMVI melanoma
DU-145 prostate = tested on: DU-145 prostate
RXF 393 renal = tested on: RXF 393 renal
SF-268 CNS = tested on: SF-268 CNS
NCI-H226 lung = tested on: NCI-H226 lung

Row | Structure (SMILES) | GI50 (SNB-19 CNS) | TGI (SNB-19 CNS) | GI50 (SK-OV-3 ovarian) | TGI (SK-OV-3 ovarian) | GI50 (SK-MEL-28 melanoma) | TGI (SK-MEL-28 melanoma) | GI50 (COLO 205 colon) | TGI (COLO 205 colon) | GI50 (SF-539 CNS) | TGI (SF-539 CNS) | GI50 (LOX IMVI melanoma) | TGI (LOX IMVI melanoma) | GI50 (DU-145 prostate) | TGI (DU-145 prostate) | GI50 (RXF 393 renal) | TGI (RXF 393 renal) | GI50 (SF-268 CNS) | TGI (SF-268 CNS) | GI50 (NCI-H226 lung) | TGI (NCI-H226 lung)
1 | CCN1C(=O)CNc2ncc(-c3ccc(-c4ncn[nH]4)nc3C)nc21 | 0.337 µM | 6.9 µM | 0.102 µM | 0.617 µM | 0.115 µM | 1.44 µM | 0.16 µM | 1.72 µM | 0.144 µM | 0.859 µM | 0.205 µM | 2.47 µM | 0.253 µM | 12.7 µM | 0.0476 µM | 0.371 µM | 0.235 µM | 10.2 µM | 0.128 µM | 6.44 µM
2 | COc1ccc(OC)c(/C=C/C(=O)N/N=C/c2ccc(Cl)cc2)c1 | 0.159 µM | > 100 µM | 0.0928 µM | 9.81 µM | 0.372 µM | > 100 µM | 0.0935 µM | 0.599 µM | 0.157 µM | 11.1 µM | 0.115 µM | > 100 µM | 0.18 µM | > 29 µM | 0.0363 µM | 0.268 µM | 0.235 µM | > 100 µM | 0.909 µM | > 100 µM
3 | CN(C)CCCn1c2c(c3ccccc3c1=O)C(=O)c1ccccc1-2 | 2.2 µM | 21.9 µM | 4.14 µM | 73.8 µM | 3.97 µM | 18.3 µM | 7.52 µM | 24.8 µM | 1.86 µM | 9.14 µM | 0.937 µM | 3.19 µM | 1.33 µM | 8.54 µM | 5.38 µM | 49.3 µM | 2.71 µM | 15.2 µM | 1.18 µM | 2.74 µM
4 | COc1cc(C2=NN(C(C)=O)C(c3ccc(OC(C)=O)cc3OC(C)=O)O2)c(OC(C)=O)c2ccccc12 (configuration not stated) | 1.19 µM | > 75.3 µM | 0.649 µM | 19.7 µM | 1.27 µM | 23.2 µM | 2.58 µM | 10.1 µM | 0.697 µM | 3.48 µM | 0.374 µM | 11.7 µM | 0.683 µM | > 100 µM | 1 µM | 12.5 µM | 0.465 µM | > 24.4 µM | 1.15 µM | 14.4 µM
5 | CCC1(O)C(=O)OCc2c1cc1n(c2=O)Cc2cc3ccc(C=O)cc3nc2-1 (configuration not stated) | 1.67 µM | 50 µM and > 100 µM | 7.45 µM | 50 µM and 52.1 µM | 11.2 µM | 50 µM and > 100 µM | 5.77 µM | 12.5 µM and 31.3 µM | 1.69 µM |  | 0.403 µM | 7.8 µM and 5.58 µM |  | 3.21 µM and 24.3 µM | 4.92 µM | 20.8 µM and 13.1 µM | 0.376 µM | 50 µM and 40 µM | 1.76 µM | 13.9 µM and 7.4 µM
6 | CCC#CC[C@H]1C/C=C2/C(=O)C=C[C@@H]2C/C=C\CCCC(=O)O1 | 1.48 µM | 7.02 µM | 2.36 µM | 7.74 µM | 1.17 µM | 3.83 µM | 0.961 µM | 2.1 µM | 1.94 µM | 7.67 µM | 0.698 µM | 1.5 µM | 1.37 µM | 6.24 µM | 0.945 µM | 1.96 µM | 1.23 µM | 4.55 µM | 1.27 µM | 5.26 µM
7 | COc1ccc2c(c1)C(=O)c1c-2n(CCCn2ccnc2)c(=O)c2ccccc12 | 0.293 µM | > 46.5 µM | 0.595 µM | 4.59 µM | 2.08 µM | > 57.4 µM | 0.579 µM | 14.3 µM | 0.244 µM | 0.906 µM | 0.179 µM | 0.835 µM | 0.247 µM | 4.66 µM | 0.431 µM | 2 µM | 0.214 µM | > 25.3 µM | 1.12 µM | 5.58 µM
8 | COc1cc(NC(=O)c2cc(O)c(CC=C(C)C)c(O)c2)cc2c1O[C@]1(C)CC[C@@H](O)C(C)(C)[C@H]1C2 | 3.68 µM | 21 µM | 4.72 µM | 28.8 µM | 2.31 µM | 16.8 µM | 2.24 µM | 5.5 µM | 0.659 µM | 4.02 µM | 3.07 µM | 19.1 µM | 7.49 µM | 20.5 µM | 0.434 µM | 2.34 µM | 4.65 µM | 72.6 µM | 11.2 µM | 31.7 µM
9 | CCN(CC)c1sc(N(CC)CC)c2c1SSSSS2 | 2.64 µM | 12.7 µM | 3.13 µM | 6.98 µM | 1.55 µM | 3.92 µM | 0.937 µM |  | 0.995 µM | 2.63 µM | 1.01 µM | 3.31 µM | 1.8 µM | 3.37 µM | 1.59 µM |  | 1.96 µM | 4.53 µM | 1.75 µM | 3.46 µM
10 | Nc1ncc(-c2cnn(CCO)c2)c2scc(-c3ccc(NC(=O)Nc4cccc(F)c4)cc3)c12 | 1.04 µM | 9.16 µM | 0.338 µM | 3.99 µM | 0.465 µM | 3.56 µM | < 0.01 µM | < 0.0307 µM |  |  |  |  | 0.52 µM | 11.6 µM | 0.241 µM | 1.13 µM | 0.435 µM | 9.73 µM | 0.162 µM | 5.15 µM
11 | Cc1cc(C)c(C(=O)CC(=O)c2cccnc2)c(C)c1 | 6.34 µM | > 100 µM | 9.04 µM | > 100 µM | 14 µM | > 100 µM | 8.01 µM | > 100 µM | 6.93 µM | 45.7 µM | 4.84 µM | > 100 µM | 12.2 µM | > 100 µM | 10.7 µM | 60.2 µM | 10.5 µM | > 100 µM | 7.34 µM | 86.8 µM
12 | O=C(Nc1ccc(Cl)cc1)c1cc(-c2ccc(F)cc2)c2sc(=O)[nH]c2n1 | 2.73 µM | 16.2 µM | 1.57 µM | 5.41 µM | 1.39 µM | 10.1 µM | 1.76 µM | 3.82 µM | 2.07 µM | 5.71 µM | 1.68 µM | 4.43 µM | 3.7 µM | 28.9 µM | 1.7 µM | 3.99 µM | 2.59 µM | 17.2 µM | 1.11 µM | 3.93 µM
13 | COc1ccc2c(c1)C=C([N+](=O)[O-])C(C1OC(C)(C)OC1C1COC(C)(C)O1)O2 (configuration not stated) |  | 25.7 µM |  | 24.2 µM |  | 3.83 µM |  | 30 µM |  | 19.3 µM |  | 2.92 µM |  | 29.5 µM |  | 8.7 µM |  | 13.5 µM |  | 21.6 µM
14 | CN/N=C(/CCN1CCCC1)CC(c1ccccc1)c1c(O)c2ccccc2oc1=O (configuration not stated) |  | > 100 µM |  | > 100 µM |  | > 100 µM |  | > 91.4 µM |  | > 100 µM |  | > 100 µM |  | > 100 µM |  | > 100 µM |  | > 100 µM |  | > 100 µM
15 | COc1cc2oc(-c3ccc(O)cc3)cc(=O)c2c(OC)c1OC |  | > 100 µM |  |  |  | > 100 µM |  | > 100 µM |  | > 100 µM |  | > 100 µM |  | > 100 µM |  | > 100 µM |  | > 100 µM |  | > 100 µM
16 | Fc1cc(F)c(COc2cc(Cn3cnc4c(Cl)nc(Cl)nc43)ccc2C23CC4CC(CC(C4)C2)C3)cc1F | 17.5 µM | 31.7 µM | 22 µM | 43.3 µM | 18.2 µM | 37.4 µM | 17.8 µM | 39.1 µM | 17.9 µM | 32.3 µM | 1.76 µM | 3.91 µM | 17.1 µM | 30.8 µM | 15.3 µM | 29.7 µM | 16.4 µM | 33.1 µM | 2.15 µM | 4.51 µM
17 | CCN(CC)c1ccc(C(=N)c2ccc(N(CC)CC)cc2)cc1 | 0.917 µM | 8.09 µM | 0.854 µM | 2.89 µM | 0.916 µM | 2.81 µM | 0.361 µM | 1.32 µM | 0.83 µM | 2.43 µM | 0.598 µM | 2.02 µM | 0.467 µM | 2.65 µM | 0.731 µM | 2.45 µM | 0.602 µM | 2.67 µM | 0.669 µM | 2.57 µM
18 | COC(=O)C(=O)C(C(=O)C(=O)Nc1ccccc1C(N)=O)c1nc2ccc(Cl)cc2[nH]c1=O (configuration not stated) |  | > 100 µM |  | > 100 µM |  | > 100 µM |  | > 100 µM |  | > 100 µM |  | > 100 µM |  | > 100 µM |  | > 100 µM |  | > 100 µM |  | > 100 µM
19 | Cc1ccc(/C(=C/C=C(C#N)C#N)Sc2ccc(Cl)cc2)cc1 | 11 µM | 25.3 µM | 16.4 µM | 36.1 µM | 10.6 µM | 46.8 µM | 7.58 µM | 30.4 µM | 2.66 µM | 5.45 µM | 2.57 µM | 5.98 µM | 3.95 µM | 11.3 µM | 11.9 µM | 39.2 µM | 9.8 µM | 35.7 µM |  | 
20 | CCCCN=C(N)c1ccc(OCCSCCOc2ccc(C(N)=NCCCC)cc2)cc1 |  |  | 2.54 µM | > 100 µM | 20 µM | > 100 µM | 3.1 µM | 15 µM | 5.59 µM | > 100 µM | 9.46 µM | > 100 µM | 10.7 µM | > 100 µM | 43.2 µM | > 100 µM | 5.32 µM | > 100 µM | 65.4 µM | > 100 µM
